The values below are quoted from earlier work in patent US20250213469A1, “DOSAGE FORMS OF ACTIVE […] AGAINST VIRAL DISEASES IN DRY POWDER INHALER DEVICE FOR SYMPTOMS CAUSED BY COVID-19 AND OTHER VIRAL LUNG DISEASES” ([…] EGITIM D[…].S., priority 2022, published 2025).

For this data set the following is noted: C3H/HeN mice, positron emission tomography; literature study of Bocan et al.

Turning to `NC(=O)c1nc(F)c[nH]c1=O` [[^18F] Favipiravir], the “tissue retention (biodistribution) of the active substance” value is “retained lowest in the lungs and the most in the kidney, liver and stomach”.
